PubChem BioAssay (NCI)
Values joined by “and” are separate entries in the source; they are usually repeats but may differ in a detail not shown here. Identical values can stand only once.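 Cultured in 96-well plates, cells were exposed to test compound for 48 hours across five concentrations. At the GI50, growth is halved. At the TGI there is no net growth.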 Where a SMILES comes first, the peptide text is derived from it. The star is where a group is joined. Fmoc = O=C(OCC1c2ccccc2-c2ccccc21)*; Boc = CC(C)(C)OC(=O)*; OtBu = CC(C)(C)O*

Key:
Assay in all cases: growth of human tumour cells (NCI), 48 h
[1] = system: NCI-H460 lung
[2] = system: SF-539 CNS
[3] = system: IGROV1 ovarian
[4] = system: OVCAR-4 ovarian
[5] = system: SK-MEL-28 melanoma
[6] = system: SF-268 CNS
[7] = system: SK-MEL-5 melanoma
[8] = system: UACC-62 melanoma
[9] = system: SNB-19 CNS
[10] = system: A498 renal
[11] = system: OVCAR-5 ovarian
[12] = system: BT-549 breast
[13] = system: NCI-H23 lung
[14] = system: SW-620 colon
[15] = system: HCT-15 colon
[16] = system: T-47D breast
[17] = system: KM12 colon
[18] = system: M14 melanoma
[19] = system: HT29 colon
[20] = system: UO-31 renal
[21] = system: CAKI-1 renal
[22] = system: HS 578T breast
[23] = system: EKVX NSCLC
[24] = system: RXF 393 renal
[25] = system: NCI/ADR-RES ovarian
[26] = system: K-562 leukemia
[27] = system: MDA-MB-435
[28] = system: MCF7 breast
[29] = system: NCI-H226 lung
[30] = system: ACHN renal
[31] = system: HOP-92 NSCLC
[32] = system: HOP-62 NSCLC
[33] = system: MDA-N
[34] = system: NCI-H522 lung
[35] = system: SNB-75 CNS
[36] = system: TK-10 renal
[37] = system: MDA-MB-231 breast
[38] = system: A549 NSCLC
[39] = system: HL-60(TB) leukemia
[40] = system: SF-295 CNS
[41] = system: RPMI-8226 leukemia
[42] = system: U251 CNS
[43] = system: 786-0 renal
[44] = system: SN12C renal
[45] = system: MOLT-4 leukemia
[46] = system: HCT-116 colon
[47] = system: SK-OV-3 ovarian
[48] = system: SK-MEL-2 melanoma
[49] = system: COLO 205 colon
[50] = system: OVCAR-8 ovarian
[51] = system: SR leukemia
[52] = system: MALME-3M melanoma
[53] = system: PC-3 prostate
[54] = system: DU-145 prostate
[55] = system: OVCAR-3 ovarian
[56] = system: LOX IMVI melanoma
[57] = system: CCRF-CEM leukemia
[58] = system: UACC-257 melanoma
[59] = system: HCC-2998 colon

Work on `Cc1ccc(C2(C)CC/C(=N/N=C3/CCC(C)(c4ccc(C)c(C)c4)c4cc(C)c(C)cc43)c3cc(C)c(C)cc32)cc1C` (stereo not given) yielded a TGI [1] of over 100 µM, a TGI [2] of over 100 µM and a TGI [3] of over 100 µM. It also gave a TGI [4] of over 100 µM, a TGI [5] of over 100 µM and a TGI [6] of over 100 µM. The TGI [7] was over 100 µM, the TGI [8] was over 100 µM and the TGI [9] was over 100 µM. The TGI [10] was over 100 µM, the TGI [11] was over 100 µM and the TGI [12] was over 100 µM. It also gave a TGI [13] of over 100 µM, a TGI [14] of over 100 µM and a TGI [15] of over 100 µM. The TGI [16] was over 100 µM, the TGI [17] was over 100 µM and the TGI [18] was over 100 µM. The TGI [19] was over 100 µM, the TGI [20] was over 100 µM and the TGI [21] was over 100 µM. It also gave a TGI [22] of over 100 µM, a TGI [23] of over 100 µM and a TGI [24] of over 100 µM. The TGI [25] was over 100 µM, the TGI [26] was over 100 µM and the TGI [27] was over 100 µM. For the same molecule, the TGI [28] was over 100 µM, the TGI [29] was over 100 µM and the TGI [30] was over 100 µM. For the same molecule, the TGI [31] was over 100 µM, the TGI [32] was over 100 µM and the TGI [33] was over 100 µM. It also gave a TGI [34] of over 100 µM, a TGI [35] of over 100 µM and a TGI [36] of over 100 µM. It also gave a TGI [37] of over 100 µM, a TGI [38] of over 100 µM and a TGI [39] of over 100 µM. The TGI [40] was over 100 µM, the TGI [41] was over 100 µM and the TGI [42] was over 100 µM. For the same molecule, the TGI [43] was over 100 µM, the TGI [44] was over 100 µM and the TGI [45] was over 100 µM. It also gave a TGI [46] of over 100 µM, a TGI [47] of over 100 µM and a TGI [48] of over 100 µM. The TGI [49] was over 100 µM, the TGI [50] was over 100 µM and the TGI [51] was over 100 µM. The TGI [52] was over 100 µM, the TGI [53] was over 100 µM and the TGI [54] was over 100 µM. For the same molecule, the TGI [55] was over 100 µM and the TGI [56] was over 100 µM.
`CC(C)(C)OC(=O)CCC(NC(=O)OCC1c2ccccc2-c2ccccc21)C(=O)NC(Cc1c[nH]c2ccccc12)C(=O)NC(CCCCNC(=O)OC(C)(C)C)C(=O)N1CCCC1C(=O)NCC(N)=O` (stereo not given) (Fmoc-E(OtBu)WK(Boc)PG-NH2; configuration not given here) was tested, and the TGI [1] was 30.4 µM and 68.9 µM, the TGI [2] was over 100 µM and the TGI [3] was 29.5 µM and > 100 µM. For the same molecule, the TGI [4] was 25.5 µM and 31.2 µM, the TGI [5] was over 100 µM and the GI50 [6] was 21.5 µM and 44.7 µM. The TGI [6] was 37.2 µM and > 100 µM, the TGI [7] was 29.7 µM and > 100 µM and the TGI [8] was 28.2 µM and 39.9 µM. The TGI [9] was 72.9 µM and 40.6 µM, the GI50 [11] was 45.6 µM and > 100 µM and the TGI [11] was over 100 µM. The TGI [12] was 29.5 µM and 38.3 µM, the GI50 [13] was 14.2 µM and 32.7 µM and the TGI [13] was 27.2 µM and > 100 µM. The GI50 [14] was 19 µM and 46.9 µM, the TGI [14] was 33.6 µM and > 100 µM and the GI50 [15] was 12.5 µM and 73.9 µM. For the same molecule, the TGI [15] was 24.9 µM and > 100 µM, the TGI [16] was over 100 µM and the GI50 [17] was 16.2 µM and 35.9 µM. The TGI [17] was 33.1 µM and > 100 µM, the TGI [18] was 90.5 µM and > 100 µM and the TGI [19] was over 100 µM. The GI50 [20] was 3.85 µM and 14.4 µM, the TGI [20] was 14.7 µM and 28.1 µM and the GI50 [57] was 67.3 µM and 31.5 µM. For the same molecule, the TGI [57] was > 100 µM and 73.7 µM, the TGI [22] was 59.3 µM and 76.1 µM and the GI50 [23] was 17.9 µM and > 100 µM. For the same molecule, the TGI [23] was 34.8 µM and > 100 µM, the TGI [24] was 28.3 µM and 50.4 µM and the GI50 [25] was 16.9 µM and 68.5 µM. For the same molecule, the TGI [25] was 30.6 µM and > 100 µM, the TGI [26] was over 100 µM and the GI50 [27] was 18 µM and 42.7 µM. The TGI [27] was 31.9 µM and > 100 µM, the TGI [28] was over 100 µM and the GI50 [29] was 15.3 µM and 78.8 µM. The TGI [29] was 32.5 µM and > 100 µM, the TGI [30] was 30 µM and 35 µM and the TGI [31] was 31.4 µM and 35.7 µM. The GI50 [32] was 18 µM and 42.2 µM, the TGI [32] was 31.8 µM and > 100 µM and the TGI [33] was 31.6 µM and > 100 µM. The TGI [34] was 4.16 µM, the TGI [35] was 52.1 µM and 29.9 µM and the GI50 [58] was 40.4 µM and 94.9 µM. The TGI [58] was over 100 µM, the GI50 [36] was 36.5 µM and > 100 µM and the TGI [36] was over 100 µM. For the same molecule, the TGI [37] was 25.2 µM and 28.9 µM, the GI50 [38] was 17.6 µM and > 100 µM and the TGI [38] was 31.5 µM and > 100 µM. For the same molecule, the GI50 [39] was 3.8 µM and 33.5 µM, the TGI [39] was over 100 µM and the TGI [59] was over 100 µM. For the same molecule, the TGI [40] was over 100 µM, the TGI [41] was 35.6 µM and > 100 µM and the TGI [42] was 31.1 µM and 31 µM. For the same molecule, the TGI [43] was 31.3 µM and 34.9 µM, the GI50 [44] was 18.3 µM and 67.4 µM and the TGI [44] was 32.2 µM and > 100 µM. The TGI [45] was 61.7 µM and 81.7 µM, the GI50 [46] was 18.3 µM and 48.1 µM and the TGI [46] was 32.2 µM and > 100 µM. The TGI [47] was > 100 µM and 93.9 µM, the TGI [48] was 39.2 µM and 33.5 µM and the GI50 [49] was 17.1 µM and 41.9 µM. For the same molecule, the TGI [49] was 32.7 µM and > 100 µM, the TGI [50] was 33.4 µM and > 100 µM and the TGI [51] was 52.7 µM and > 100 µM. The TGI [52] was 33.9 µM and 78.9 µM, the GI50 [53] was 16.4 µM and > 100 µM and the TGI [53] was 29.9 µM and > 100 µM. For the same molecule, the GI50 [54] was 16.1 µM and > 100 µM, the TGI [54] was 29.6 µM and > 100 µM and the TGI [55] was 37.4 µM and 51 µM. The TGI [56] was 24.5 µM and 44.7 µM.
